Assay results published in ChEMBL document CHEMBL1201862, “PubChem BioAssay data set” (2004).
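Exposure lasted 48 hours, with cells grown in 96-well plates and compounds tested at five concentrations. At the GI50, growth is halved.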 Active and inactive are the calls of the source. Cut-off read from the data, not from the text of the source: active = GI50 up to about 1.1 µM and inactive = higher.

Experiments:
Experiment in all cases: NCI anticancer screen, dose series, 48 h
OVCAR-4 = tested on: OVCAR-4
SN12C = tested on: SN12C
SNB-19 = tested on: SNB-19
SNB-75 = tested on: SNB-75
NCI-H460 = tested on: NCI-H460
EKVX = tested on: EKVX
MDA-N = tested on: MDA-N
NCI-H226 = tested on: NCI-H226
TK-10 = tested on: TK-10
T47D = tested on: T47D
MCF7 = tested on: MCF7
A549 = tested on: A549
BT-549 = tested on: BT-549
HOP-92 = tested on: HOP-92
OVCAR-8 = tested on: OVCAR-8
SF-268 = tested on: SF-268
HCT-116 = tested on: HCT-116
M14 = tested on: M14
Malme-3M = tested on: Malme-3M

Measured: GI50

CC1=C(C(=O)OC(C)(C)C)C(c2ccc([N+](=O)[O-])cc2)C(C(=O)OC(C)(C)C)=C(C)N1
inactive: OVCAR-4 20.7 µM | SN12C 19.8 µM | SNB-19 34.4 µM | SNB-75 24.1 µM | NCI-H460 22.2 µM | EKVX 18.5 µM | MDA-N 25.5 µM | NCI-H226 21.3 µM | TK-10 20.1 µM | T47D 14.7 µM | MCF7 16.6 µM | A549 24.9 µM | BT-549 28 µM | HOP-92 15.4 µM | OVCAR-8 20.4 µM | SF-268 21.7 µM | HCT-116 20.5 µM | M14 23.9 µM

CCC(=O)Nc1ccc(NCC(=O)Nc2ccc(Cl)cc2)cc1
inactive: OVCAR-4 14 µM | SN12C 17.1 µM | SNB-19 19.8 µM | SNB-75 25.5 µM | EKVX 14 µM | MDA-N 17.2 µM | NCI-H226 18.2 µM | T47D 12.8 µM | MCF7 14.3 µM | A549 19.7 µM | BT-549 21.9 µM | HOP-92 17.6 µM | OVCAR-8 27.5 µM | SF-268 22.6 µM | HCT-116 14.4 µM | Malme-3M 19.7 µM | M14 15.3 µM

CC(C)(C)c1ccc(-n2c3nc(=O)n(-c4ccccc4C(F)(F)F)c(=O)c-3cc3ccccc32)cc1
inactive: OVCAR-4 27.5 µM | SN12C 20.2 µM | SNB-19 31.8 µM | SNB-75 15.6 µM | NCI-H460 4.25 µM | EKVX 18.6 µM | MDA-N 22.2 µM | NCI-H226 17 µM | TK-10 51.9 µM | T47D 22.9 µM | MCF7 15.6 µM | A549 29 µM | BT-549 24 µM | HOP-92 18.1 µM | OVCAR-8 19.6 µM | SF-268 30.5 µM | HCT-116 10.5 µM | M14 14.4 µM

O=C(OCC(OC(=O)c1ccccc1)C1CC(C(O)C2CCCCC2)C(=O)O1)c1ccccc1 (stereo not given)
inactive: OVCAR-4 32.7 µM | SN12C 47.6 µM | SNB-19 59 µM | SNB-75 51.4 µM | NCI-H460 25.9 µM | EKVX > 100 µM | MDA-N > 100 µM | NCI-H226 87.7 µM | TK-10 > 100 µM | T47D 37.2 µM | MCF7 31.7 µM | BT-549 53 µM | HOP-92 > 100 µM | OVCAR-8 49.3 µM | SF-268 91.8 µM | HCT-116 31.6 µM | M14 63.7 µM

CCc1cccc(CC)c1Nc1nc(-c2ccccc2-c2ccccc2)cs1
inactive: OVCAR-4 > 100 µM | SN12C > 100 µM | SNB-19 > 100 µM | SNB-75 29.5 µM | NCI-H460 65.3 µM | EKVX > 100 µM | MDA-N 50.8 µM | TK-10 82.2 µM | T47D > 100 µM | MCF7 66.2 µM | A549 > 100 µM | BT-549 18.2 µM | HOP-92 46.6 µM | SF-268 > 100 µM | HCT-116 51.2 µM | Malme-3M > 100 µM | M14 92.9 µM

CC(=O)Nc1ccc(C2SCc3nc4ccccc4n32)cc1 (stereo not given)
inactive: OVCAR-4 38.4 µM | SN12C > 100 µM | SNB-19 > 100 µM | SNB-75 34.4 µM | NCI-H460 > 100 µM | EKVX 87.9 µM | MDA-N > 100 µM | TK-10 22.6 µM | T47D 48.9 µM | MCF7 57 µM | A549 > 100 µM | BT-549 > 35.7 µM | HOP-92 57.7 µM | OVCAR-8 37.7 µM | SF-268 55.2 µM | HCT-116 > 100 µM | Malme-3M 34.7 µM | M14 > 100 µM
